pIC50: −log10 of the molar value. Where two headings read alike, the source gives them in different places.
How the values were obtained:
[1] = test system: wild-type ZIKV (Ugandan MR766 strain) in Vero cells; experiment: ZIKV cytopathic effect (CPE) inhibition qHTS assay, CellTiter-Glo readout; format: cell-based, Zika virus; settings: for AC50 / pIC50: Zika virus; for pIC50: read-out: ZIKV-infection (CPE, ZIKV Antiviral Assays), IC50
in vitro [2] = settings: African green monkey
in vitro [3] = settings: human
in vitro [4] = settings: human; remark: listed apart in the source
[5] = test system: ZIKV-RLuc (Cambodian strain FSS13025); experiment: microbe, parasite or virus in culture; format: cell-based, Zika virus; settings: Zika virus, Vero, 48 h, read-out: Rluc-ZIKV (ZIKV Antiviral Assays), IC50
[6] = test system: mCherry-ZIKV in human neuronal progenitor cells; experiment: microbe, parasite or virus in culture; format: cell-based, Zika virus; settings: for AC50 / pIC50: Zika virus, Neuronal progenitor cell; for pIC50: read-out: NPC (ZIKV Antiviral Assays), IC50
[7] = test system: ZIKV-mCherry (Cambodian strain FSS13025); experiment: microbe, parasite or virus in culture; format: cell-based, Zika virus; settings: for AC50: Zika virus, Vero
[8] = test system: caspase-3 activity induced by ZIKV in Vero cells; experiment: cells; format: cell-based; settings: Zika virus, read-out: Caspase 3 (ZIKV Antiviral Assays), IC50
[9] = test system: DENV (Dengue virus type 2, strain New Guinea C)
[10] = Vero, read-out: Log AC50 (M) (converted)
[11] = read-out: Log AC50 (M) (converted)

Structure (SMILES)	Efficacy [1]	AC50 ([1]; Vero) [M]	pIC50 ([1]; Vero, 48 h)	AC50 [1, 10] [M]	CC50 at 24 h (in vitro [3]) [µM]	pIC50 [5]	CC-v2 (curve class) [6]	Efficacy [6]	Max Resp [6]	AC50 [6] [M]	AC50 [6, 11] [M]	pIC50 [6]	CC-v2 (curve class of the dose response curve) [7]	Efficacy (difference between neutral response and maximum compound response) [7]	Max Resp (difference between neutral response and response at highest compound concentration) [7]	pIC50 ([8]; Vero, 48 h)	YFV active Yes/No (YFV (YFV 17D))	ZIKV active Yes/No (ZIKV)	DENV active Yes/No [9]	WHV active Yes/No (WNV (Kern515/WN02))	also measured
Nc1ccn([C@@H]2O[C@H](CO)[C@@H](O)C2(F)F)c(=O)n1 [NCGC00168784-08, gemcitabine, reference compound]	-24.938	9.2e-06	5.04	9.2e-06	16.3	7.70	-1.2	-65.573	-52.766	6.31e-06	6.31e-06	5.20	-1.2	-61.697	-99.896	< 4.32					CC50 at 48 h (in vitro [2]; Vero cells): > 50 µM; CC50 (in vitro [4]): > 30 µM; Antiviral activity in human NPC [6]: moderate antiviral activity; AC50 [7]: 2.67e-09 M; AC50 [7, 11]: 2.67e-09 M
C=C1CCC2[C@](C)(CCC[C@]2(C)C(=O)O)[C@H]1CC/C(C)=C/C(=O)OC (some centres unmarked) [NCGC00168922-02]	-63.179	4.04e-07	6.40	4.04e-07	13.3	7.15	4	-21.467	-17.835			4.95	-1.4	-50.999	-55.843	5.14	No	No	No	No	CC50 at 48 h (in vitro [2]; Vero cells): > 50 µM; CC50 (in vitro [4]): > 30 µM
CNC(=O)c1cc(Oc2ccc(NC(=O)Nc3cc(C(C)(C)C)nn3-c3ccc4ncccc4c3)c(F)c2)ccn1 [NCGC00263172-09]	-30.756	2.91e-05	4.54	2.91e-05	12.1	5.08		-38.32	-37.38	4.47e-05	4.47e-05	4.35	-1.2	-48.4	-100.305	8.00	No	No	No	No	CC-v2 (curve class classification of the dose response curve) [1]: -1.2; CC50 at 48 h (in vitro [2]; Vero cells): > 50 µM; CC50 (in vitro [4]): > 30 µM; AC50 [7]: 9.46e-07 M; AC50 [7, 11]: 9.46e-07 M
CCOC(=O)C1=C(C)NC2=C(C(=O)CC(C)(C)C2)C1c1ccc(-c2ccccc2)cc1 (centres unmarked) [NCGC00347947-06]	-55.111	2.06e-05	4.69	2.06e-05	> 30	4.83	-2.1	-93.817	-85.476	3.55e-05	3.55e-05	4.45	5	-39.533	-99.952	4.48	No	No	No	No	CC-v2 (curve class classification of the dose response curve) [1]: -2.2; CC50 at 48 h (in vitro [2]): > 50 µM; CC50 (in vitro [4]): 22.4 µM; Antiviral activity in human NPC [6]: moderate antiviral activity; AC50 [7]: 8.43e-07 M; AC50 [7, 11]: 8.43e-07 M
COC(=O)[C@]12CCCC(C)(C)C1CCc1cc(C(C)C)c(O)c(O)c12 (some centres unmarked) [NCGC00380281-01]					> 30	4.59	4	-22.278	-14.815			4.50	-1.4	-82.117	-100.29		No	No	No	No	AC50 ([1]; Vero, from Hill fit of the response curve, 50% of maximum activity response, 194 cherry-picked compounds, protocol name not given, read-out: AC50): 7.18e-06 M; AC50 ([1]; Vero, potency in log units (Molar) from Hill fit of the response curve, 194 cherry-picked compounds, protocol name not given, read-out: Log AC50 (converted)): 7.18e-06 M; pIC50 ([1]; Vero cells, wild-type ZIKV MOI 1, 48 hr, unit inferred): 5.14; Efficacy ([1]; difference between neutral response and maximum compound response): -21.701; CC50 at 48 h (in vitro [2]): > 50 µM; CC50 (in vitro [4]): > 30 µM; pIC50 ([8]; ZIKV-infected Vero cells, 48 hr, unit inferred): 4.89
OC1C=C2C3CN(Cc4cc5c(cc43)OCO5)C2CC1O (centres unmarked) [NCGC00385948-01]	-79.681	2.59e-05		2.59e-05		5.03	-1.2	-64.358	-62.953	1e-05	1e-05	5.00	-1.2	-44.826	-97.729	5.38	No	Yes	Yes	Yes	Activity against ZIKV (ZIKV): weaker against WNV and ZIKV; SI value ZIKV (CC50/EC50) (ZIKV): 4.7; Selectivity Index ZIKV (CC50/EC50) (ZIKV): 5; Activity against DENV [9]: active against DENV; SI value DENV (CC50/EC50) [9]: 16; Selectivity Index DENV (CC50/EC50) [9]: 16; CC-v2 (curve class classification of the dose response curve) [1]: -2.2; CC50 (in vitro [2]): > 50 µM; CC50 (in vitro [3]): > 30 µM; Antiviral activity in human NPC [6]: effectively inhibited ZIKV in NPC cells; AC50 [7]: 2.67e-06 M; AC50 [7, 11]: 2.67e-06 M; Activity against WNV (WNV (Kern515/WN02)): weaker against WNV and ZIKV; SI value WHV (CC50/EC50) (WNV (Kern515/WN02)): 7.6; Selectivity Index WHV (CC50/EC50) (WNV (Kern515/WN02)): 8
CC(C)(C#N)c1ccc(N2C(=O)OCc3cnc4ccc(-c5cnc6ccccc6c5)cc4c32)cc1 [NCGC00386292-05]	-23.858	4.61e-06	5.34	4.61e-06	> 30	5.53		-38.419	3.825	2.51e-05	2.51e-05	4.60	-1.2	-67.723	-93.524	7.40	No	Yes	No	No	SI value ZIKV (CC50/EC50) (ZIKV): 3; Selectivity Index ZIKV (CC50/EC50) (ZIKV): 3; CC50 at 48 h (in vitro [2]; Vero cells): > 50 µM; Antiviral activity in human NPC [6]: moderate antiviral activity; AC50 [7]: 5.32e-07 M; AC50 [7, 11]: 5.32e-07 M
Cc1[nH]c2ccccc2c1C1=C(NCCc2ccc(F)cc2)C(=O)N(C)C1=O [NCGC00386352-05]	-35.912	2.06e-05	4.69	2.06e-05	17.8	5.13	-2.2	-103.895	-78.246	3.98e-05	3.98e-05	4.40	-1.4	-71.769	-66.876	4.48	No	Yes	Yes	No	Activity against ZIKV (ZIKV): active against both DENV and ZIKV; SI value ZIKV (CC50/EC50) (ZIKV): 23; Selectivity Index ZIKV (CC50/EC50) (ZIKV): 23; Activity against DENV [9]: active against both DENV and ZIKV; SI value DENV (CC50/EC50) [9]: 24; Selectivity Index DENV (CC50/EC50) [9]: 24; CC-v2 (curve class classification of the dose response curve) [1]: -1.2; CC50 at 48 h (in vitro [2]; Vero cells): > 50 µM; CC50 (in vitro [4]): > 30 µM; Antiviral activity in human NPC [6]: effectively inhibited ZIKV in NPC cells
C=C(F)c1sc(CNCCCNc2cc(=O)c3ccccc3[nH]2)c(C)c1Br [NCGC00386616-01]	-30.953	2.06e-05	4.69	2.06e-05	> 30	5.08	-2.2	-88.323	-56.18	3.98e-05	3.98e-05	4.40	-1.4	-70.696	-94.173	5.98	No	No	No	No	CC50 at 48 h (in vitro [2]; Vero cells): > 50 µM; Antiviral activity in human NPC [6]: moderate antiviral activity
